By IC50 is commonly meant the concentration that inhibits the measured activity by half. Usually Ki stands for the dissociation constant of the complex between target and ligand, obtained from inhibition or displacement.

The target of experiment [1] is Receptor tyrosine-protein kinase erbB-2 (Homo sapiens, UniProt P04626). The experiment is classed as cell-based. The note with it: insect cells.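 Further: inhibition of HER2 kinase enzyme activity, measured with Poly(Glu:Tyr) as the phosphorylation substrate; in other assays of this panel Not Active means under 50% inhibition at 10 µM.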
Experiment [2] addresses T1, 5-hydroxytryptamine receptor 2C (Homo sapiens, UniProt P28335).
T1 sequence (P28335 whole entry): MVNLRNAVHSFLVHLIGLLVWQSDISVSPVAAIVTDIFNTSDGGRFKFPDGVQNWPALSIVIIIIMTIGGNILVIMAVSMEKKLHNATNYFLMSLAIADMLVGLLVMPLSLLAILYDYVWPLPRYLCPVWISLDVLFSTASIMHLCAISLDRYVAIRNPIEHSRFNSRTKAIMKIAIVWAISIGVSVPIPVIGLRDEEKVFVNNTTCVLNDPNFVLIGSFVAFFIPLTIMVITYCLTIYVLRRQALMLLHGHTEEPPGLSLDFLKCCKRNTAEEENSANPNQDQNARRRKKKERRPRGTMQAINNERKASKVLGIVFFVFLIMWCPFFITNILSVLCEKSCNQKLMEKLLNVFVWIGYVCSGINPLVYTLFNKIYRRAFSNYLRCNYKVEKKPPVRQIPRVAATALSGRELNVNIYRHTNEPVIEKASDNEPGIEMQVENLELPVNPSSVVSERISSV
Briefly: DRUGMATRIX: Serotonin (5-Hydroxytryptamine) 5-HT2C radioligand binding (ligand: [3H] Mesulergine). The experiment is classed as cell membranes, CHO-K1, Membrane. The note with it: Not Active = under 50% inhibition at 10 µM.

Experiment [3] deals with Acetylcholinesterase (Homo sapiens, UniProt P22303). Briefly: DRUGMATRIX: Acetylcholinesterase enzyme inhibition (substrate: acetylthiocholine). The experiment is classed as cell-based, HEK293. The conditions noted are these: hek293; Not Active = under 50% inhibition at 10 µM.
For experiment [4], the target named is Vasopressin V1a receptor (Homo sapiens, UniProt P37288). The experiment is classed as cell membranes, Membrane. The note with it: hek293. Further: in other assays of this panel Not Active means under 50% inhibition at 10 µM.
Experiment [5] concerns the target T2, Cathepsin G (Homo sapiens, UniProt P08311).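 Further: inhibition of Cathepsin G enzyme activity, tested on an AMC-conjugated peptide substrate; in other assays of this panel Not Active means under 50% inhibition at 10 µM.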
T2 sequence (P08311 whole entry): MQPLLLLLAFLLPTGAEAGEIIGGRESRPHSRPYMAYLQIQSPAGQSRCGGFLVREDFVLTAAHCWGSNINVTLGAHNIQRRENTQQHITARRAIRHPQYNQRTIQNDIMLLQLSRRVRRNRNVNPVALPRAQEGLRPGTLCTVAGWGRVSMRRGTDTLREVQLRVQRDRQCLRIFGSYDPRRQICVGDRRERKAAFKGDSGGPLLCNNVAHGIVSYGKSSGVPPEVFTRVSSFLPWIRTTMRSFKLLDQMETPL
Briefly: biochemical. The conditions noted are these: neutrophil. The experiment is classed as tissue-based, Neutrophil.

Experiment [6] concerns the target 5-hydroxytryptamine receptor 2B (Homo sapiens, UniProt P41595). The experiment is classed as cell membranes, CHO-K1, Membrane. The note with it: cho-k1. Further: in other assays of this panel Not Active means under 50% inhibition at 10 µM.

Acetylcholinesterase, sequence (P22303 whole entry): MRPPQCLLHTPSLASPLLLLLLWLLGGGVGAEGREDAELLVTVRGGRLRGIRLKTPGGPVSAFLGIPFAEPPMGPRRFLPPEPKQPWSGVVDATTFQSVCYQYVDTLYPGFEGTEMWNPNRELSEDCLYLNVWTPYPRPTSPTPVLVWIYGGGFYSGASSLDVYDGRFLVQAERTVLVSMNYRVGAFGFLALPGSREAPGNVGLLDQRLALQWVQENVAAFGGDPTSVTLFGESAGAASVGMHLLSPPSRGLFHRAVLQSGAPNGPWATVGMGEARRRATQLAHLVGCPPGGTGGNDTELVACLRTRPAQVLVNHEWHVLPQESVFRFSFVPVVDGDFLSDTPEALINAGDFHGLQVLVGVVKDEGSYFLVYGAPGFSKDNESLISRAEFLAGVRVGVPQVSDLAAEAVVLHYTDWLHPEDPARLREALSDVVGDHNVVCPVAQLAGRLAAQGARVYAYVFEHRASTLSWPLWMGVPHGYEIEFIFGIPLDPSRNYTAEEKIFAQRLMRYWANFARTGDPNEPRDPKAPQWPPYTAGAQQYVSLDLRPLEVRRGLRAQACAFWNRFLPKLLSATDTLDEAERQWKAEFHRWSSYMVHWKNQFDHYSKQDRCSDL
5-hydroxytryptamine receptor 2B, sequence (P41595 whole entry): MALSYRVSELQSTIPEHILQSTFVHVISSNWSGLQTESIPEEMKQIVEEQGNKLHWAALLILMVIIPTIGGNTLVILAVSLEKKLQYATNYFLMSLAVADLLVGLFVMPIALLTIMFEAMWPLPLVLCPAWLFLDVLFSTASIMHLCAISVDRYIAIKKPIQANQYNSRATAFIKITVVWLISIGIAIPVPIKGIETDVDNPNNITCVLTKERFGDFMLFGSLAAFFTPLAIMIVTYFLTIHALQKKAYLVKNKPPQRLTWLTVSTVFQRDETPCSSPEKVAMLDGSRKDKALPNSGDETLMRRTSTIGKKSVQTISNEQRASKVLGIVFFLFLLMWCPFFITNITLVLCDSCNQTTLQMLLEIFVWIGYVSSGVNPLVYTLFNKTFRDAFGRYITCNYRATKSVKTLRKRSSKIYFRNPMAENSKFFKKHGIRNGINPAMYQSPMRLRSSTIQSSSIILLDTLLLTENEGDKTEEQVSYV
Vasopressin V1a receptor, sequence (P37288 whole entry): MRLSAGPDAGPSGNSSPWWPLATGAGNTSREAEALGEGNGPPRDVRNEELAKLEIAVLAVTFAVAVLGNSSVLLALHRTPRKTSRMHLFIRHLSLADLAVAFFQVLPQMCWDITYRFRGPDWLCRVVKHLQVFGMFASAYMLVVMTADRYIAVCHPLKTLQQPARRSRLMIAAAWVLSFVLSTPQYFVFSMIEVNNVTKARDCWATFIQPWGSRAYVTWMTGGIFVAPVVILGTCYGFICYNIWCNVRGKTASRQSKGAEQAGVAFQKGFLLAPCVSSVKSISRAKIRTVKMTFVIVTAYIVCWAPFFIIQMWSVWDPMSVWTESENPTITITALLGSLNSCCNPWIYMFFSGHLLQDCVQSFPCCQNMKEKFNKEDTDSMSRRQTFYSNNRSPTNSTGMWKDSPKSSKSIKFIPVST

As for `C[N+](C)(C)CCOC(N)=O.[Cl-]` [CARBACHOL], the IC50 result in experiment [1], in experiment [2] (cho-k1), in experiment [3], in experiment [4], in experiment [5] and in experiment [6] was “Not Active” throughout.

As for `C[C@]12CC[C@@H](O)C[C@@H]1CC[C@@H]1[C@@H]2CC[C@]2(C)C(=O)CC[C@@H]12` [ANDROSTERONE], the IC50 result in experiment [1], in experiment [2] (cho-k1), in experiment [3], in experiment [4], in experiment [5] and in experiment [6] was “Not Active” throughout.

For `C[C@H](C(=O)O)c1ccc2oc(-c3ccc(F)cc3)nc2c1` [FLUNOXAPROFEN], the IC50 entry in experiment [1], in experiment [2] (cho-k1), in experiment [3], in experiment [4], in experiment [5] and in experiment [6] was “Not Active” each time.

As to COPPER(II) OXIDE, the IC50 result in experiment [1], in experiment [2] (cho-k1), in experiment [3], in experiment [4], in experiment [5] and in experiment [6] was “Not Active” each time. Also, the Ki entry in experiment [1], in experiment [2] (cho-k1), in experiment [3], in experiment [4], in experiment [5] and in experiment [6] was “Not Active” throughout.

Take `NC(=O)CN1CCCC1=O`: the 50% inhibitory concentration (IC50) entry in experiment [1], in experiment [2] (cho-k1), in experiment [3], in experiment [4], in experiment [5] and in experiment [6] was “Not Active” throughout.

Take `O=C1c2ccccc2C(=O)C1c1ccccc1` [PHENINDIONE]: the IC50 entry in experiment [1], in experiment [2] (cho-k1), in experiment [3], in experiment [4], in experiment [5] and in experiment [6] was “Not Active” in each case.

`CCN1C[C@]2(COC)[C@H](O)C[C@H](OC)[C@@]34[C@@H]5C[C@@]6(O)[C@H](OC(=O)c7ccccc7)[C@@H]5[C@@](OC(C)=O)([C@@H]([C@H](OC)[C@H]23)[C@@H]14)[C@@H](O)[C@@H]6OC` [ACONITINE]: the IC50 entry in experiment [1], in experiment [2] (cho-k1), in experiment [3], in experiment [4], in experiment [5] and in experiment [6] was “Not Active” throughout.

Consider `O=C(NCCN1CCOCC1)c1ccc(Cl)cc1` [MOCLOBEMIDE], for which the IC50 result in experiment [1], in experiment [2] (cho-k1), in experiment [3], in experiment [4], in experiment [5] and in experiment [6] was “Not Active” throughout.

In the case of `O=C(O)COC(=O)Cc1ccccc1Nc1c(Cl)cccc1Cl` [ACECLOFENAC], the IC50 entry in experiment [1], in experiment [2] (cho-k1), in experiment [3], in experiment [4], in experiment [5] and in experiment [6] was “Not Active” each time.

On to `COc1cc(/C=C/C(=O)O)ccc1O` [FERULATE], for which the IC50 result in experiment [1], in experiment [2] (cho-k1), in experiment [3], in experiment [4], in experiment [5] and in experiment [6] was “Not Active” throughout.

`O=c1[nH]c2ccccc2c2ccccc12`: the IC50 entry in experiment [1], in experiment [2] (cho-k1), in experiment [3], in experiment [4], in experiment [5] and in experiment [6] was “Not Active” in each case.

Consider `CC(N)Cc1c[nH]c2ccc(OCc3cccs3)cc12` (stereo not drawn) [BW-723C86], for which the IC50 entry in experiment [1] was “Not Active”; in experiment [2] (read-out: IC50) it was 0.204 µM; in experiment [3], “Not Active”; in experiment [4] it was “Not Active”; in experiment [5] it was “Not Active”. Besides, the Ki in experiment [2] (read-out: Ki) is 0.107 µM.

The values above are taken from ChEMBL document CHEMBL1909046, “DrugMatrix in vitro pharmacology data”.
